According to the supplement of paper PMC10307832:

How the values were obtained:
Experiment in all cases: relative viability (nuclei count vs DMSO), 5 days (fraction); higher = more cells survive
201T = system: 201T
Outline: (§1)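 Lung cancer cell lines, seeded in 1536-well plates, were treated the following day by pin tool with a single drug or with five library-drug doses (not always all listed) in √10 steps on top of a fixed anchor-drug dose. Cells were fixed and nuclei stained in one step after 5 days, and nuclei were counted. Relative viability is the nuclei count for treated wells divided by that for vehicle wells, reported as medians of duplicate plates.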

A-427 = system: A-427
Outline: as §1

COR-L 105 = system: COR-L 105
Outline: as §1

COR-L23 = system: COR-L23
Outline: as §1

EKVX = system: EKVX
Outline: as §1

HARA = system: HARA
Outline: as §1

HCC-15 = system: HCC-15
Outline: as §1

HCC-44 = system: HCC-44
Outline: as §1

HCC-827 = system: HCC-827
Outline: as §1

LCLC-103H = system: LCLC-103H
Outline: as §1

LK-2 = system: LK-2
Outline: as §1

NCI-H1437 = system: NCI-H1437
Outline: as §1

NCI-H1666 = system: NCI-H1666
Outline: as §1

NCI-H1792 = system: NCI-H1792
Outline: as §1

NCI-H1975 = system: NCI-H1975
Outline: as §1

NCI-H23 = system: NCI-H23
Outline: as §1

NCI-H441 = system: NCI-H441
Outline: as §1

NCI-H520 = system: NCI-H520
Outline: as §1

NCI-H596 = system: NCI-H596
Outline: as §1

NCI-H650 = system: NCI-H650
Outline: as §1

NCI-H838 = system: NCI-H838
Outline: as §1

SK-MES-1 = system: SK-MES-1
Outline: as §1

Compound: C[C@@H]1CN(CC(=O)Nc2ccc3c(c2)Cc2cccc(-c4cc(=O)cc(N5CCOCC5)o4)c2S3)C[C@H](C)O1 + CS(=O)(=O)N1CCN(Cc2cc3nc(-c4cccc5[nH]ncc45)nc(N4CCOCC4)c3s2)CC1 [Pictilisib] (partner 1 µM)
- relative viability (201T; first compound 0.04 µM): 0.668
- relative viability (201T; first compound 0.1265 µM): 0.65
- relative viability (201T; first compound 0.4 µM): 0.652
- relative viability (201T; first compound 4 µM): 0.647
- relative viability (A-427; first compound 0.04 µM): 0.581
- relative viability (A-427; first compound 0.1265 µM): 0.674
- relative viability (A-427; first compound 0.4 µM): 0.679
- relative viability (A-427; first compound 4 µM): 0.675
- relative viability (COR-L 105; first compound 0.04 µM): 0.344
- relative viability (COR-L 105; first compound 0.1265 µM): 0.402
- relative viability (COR-L 105; first compound 0.4 µM): 0.375
- relative viability (COR-L 105; first compound 4 µM): 0.414
- relative viability (COR-L23; first compound 0.04 µM): 0.854
- relative viability (COR-L23; first compound 0.1265 µM): 0.785
- relative viability (COR-L23; first compound 0.4 µM): 0.745
- relative viability (COR-L23; first compound 4 µM): 0.755
- relative viability (EKVX; first compound 0.04 µM): 0.412
- relative viability (EKVX; first compound 0.1265 µM): 0.444
- relative viability (EKVX; first compound 0.4 µM): 0.414
- relative viability (EKVX; first compound 4 µM): 0.428
- relative viability (HARA; first compound 0.04 µM): 0.383
- relative viability (HARA; first compound 0.1265 µM): 0.37
- relative viability (HARA; first compound 0.4 µM): 0.226
- relative viability (HARA; first compound 4 µM): 0.372
- relative viability (HCC-15; first compound 0.04 µM): 0.815
- relative viability (HCC-15; first compound 0.1265 µM): 0.649
- relative viability (HCC-15; first compound 0.4 µM): 0.796
- relative viability (HCC-15; first compound 4 µM): 0.636
- relative viability (HCC-44; first compound 0.04 µM): 0.616
- relative viability (HCC-44; first compound 0.1265 µM): 0.573
- relative viability (HCC-44; first compound 0.4 µM): 0.465
- relative viability (HCC-44; first compound 4 µM): 0.287
- relative viability (HCC-827; first compound 0.04 µM): 0.987
- relative viability (HCC-827; first compound 0.1265 µM): 1.03
- relative viability (HCC-827; first compound 0.4 µM): 1.22
- relative viability (HCC-827; first compound 4 µM): 0.995
- relative viability (LCLC-103H; first compound 0.04 µM): 0.547
- relative viability (LCLC-103H; first compound 0.1265 µM): 0.557
- relative viability (LCLC-103H; first compound 0.4 µM): 0.582
- relative viability (LCLC-103H; first compound 4 µM): 0.668
- relative viability (LK-2; first compound 0.1265 µM): 0.634
- relative viability (LK-2; first compound 0.4 µM): 0.607
- relative viability (LK-2; first compound 4 µM): 0.667
- relative viability (NCI-H1437; first compound 0.04 µM): 0.416
- relative viability (NCI-H1437; first compound 0.1265 µM): 0.45
- relative viability (NCI-H1437; first compound 0.4 µM): 0.339
- relative viability (NCI-H1437; first compound 4 µM): 0.477
- relative viability (NCI-H1666; first compound 0.04 µM): 0.444
- relative viability (NCI-H1666; first compound 0.1265 µM): 0.298
- relative viability (NCI-H1666; first compound 0.4 µM): 0.439
- relative viability (NCI-H1666; first compound 4 µM): 0.29
- relative viability (NCI-H1792; first compound 0.04 µM): 0.242
- relative viability (NCI-H1792; first compound 0.1265 µM): 0.264
- relative viability (NCI-H1792; first compound 0.4 µM): 0.274
- relative viability (NCI-H1792; first compound 4 µM): 0.287
- relative viability (NCI-H1975; first compound 0.04 µM): 0.32
- relative viability (NCI-H1975; first compound 0.1265 µM): 0.263
- relative viability (NCI-H1975; first compound 0.4 µM): 0.279
- relative viability (NCI-H1975; first compound 4 µM): 0.298
- relative viability (NCI-H23; first compound 0.04 µM): 0.448
- relative viability (NCI-H23; first compound 0.1265 µM): 0.499
- relative viability (NCI-H23; first compound 0.4 µM): 0.483
- relative viability (NCI-H23; first compound 4 µM): 0.543
- relative viability (NCI-H441; first compound 0.04 µM): 0.526
- relative viability (NCI-H441; first compound 0.1265 µM): 0.447
- relative viability (NCI-H441; first compound 0.4 µM): 0.43
- relative viability (NCI-H441; first compound 4 µM): 0.372
- relative viability (NCI-H520; first compound 0.04 µM): 0.329
- relative viability (NCI-H520; first compound 0.1265 µM): 0.281
- relative viability (NCI-H520; first compound 0.4 µM): 0.31
- relative viability (NCI-H520; first compound 4 µM): 0.374
- relative viability (NCI-H596; first compound 0.04 µM): 0.386
- relative viability (NCI-H596; first compound 0.1265 µM): 0.417
- relative viability (NCI-H596; first compound 0.4 µM): 0.404
- relative viability (NCI-H596; first compound 4 µM): 0.41
- relative viability (NCI-H650; first compound 0.04 µM): 0.828
- relative viability (NCI-H650; first compound 0.1265 µM): 0.886
- relative viability (NCI-H650; first compound 0.4 µM): 0.89
- relative viability (NCI-H650; first compound 4 µM): 0.806
- relative viability (NCI-H838; first compound 0.04 µM): 0.472
- relative viability (NCI-H838; first compound 0.1265 µM): 0.402
- relative viability (NCI-H838; first compound 0.4 µM): 0.451
- relative viability (NCI-H838; first compound 4 µM): 0.29
- relative viability (SK-MES-1; first compound 0.04 µM): 0.381
- relative viability (SK-MES-1; first compound 0.1265 µM): 0.377
- relative viability (SK-MES-1; first compound 0.4 µM): 0.356
- relative viability (SK-MES-1; first compound 4 µM): 0.355
